Measured values reported in patent US20130184321A1, “Model Mouse of Attention Deficit Hyperactivity Disorder, Method for Investigating Effects for Preventing and Alleviating Attention Disorder using the Model Mouse, and Method for Treating Attention Disorder by Suppressing T-Type Calcium Channel” (KOREA ADVANCED INSTITUTE OF SCIENCE AND TECHNOLOGY, priority 2010, published 2013).

System: ADHD animal model implanted with cobalt wire
Assay: Changes in brain wave (EEG spikes) of ADHD animal model by T-type calcium channel blocker
Type: in vivo, mouse
Details: cobalt wire implanted 7~9 days earlier, brain wave observed for one hour; for spikes observed in the frontal lobe, after vs before treatment: P<0.05
Method: Particularly, to construct the ADHD mouse model, 0.2% avertin in 20 mg/ml of tribromoethanol was administered to the mouse by intraperitoneal injection (i.p.) to anesthetize it. The head of the mouse (B6 mouse at 10˜20 weeks) was fixed on stereotaxic (David Kopf Instruments, Germany) and then cobalt wire (Alfa Aesar) was inserted therein by using holder, a part of stereotaxic. Cobalt wire (Alfa Aesar) of 500 μm in the diameter was inserted radially (vertical direction to the cortical surface) in the location of anteroposteriorally 2.6 mm, laterally 1.8 mm, and ventrally 1.3 mm in the right dorsolateral frontal lobe.
For the record of EEG, epidural electrode was inserted in the right frontal lobe where the cobalt wire was inserted. Other electrodes were inserted in the left frontal lobe and temporal lobe. Particularly, the location for the insertion in the right frontal lobe was anteroposteriorally 2.8 mm and laterally 0.8 mm and the location in the left frontal lobe was anteroposteriorally 2.8 mm and laterally 0.8 mm. […]
After three days of recovery, EEG signals and video images were recorded for 30 days. […]
Particularly, 150 mg/kg of ethosuximide (Sigma-Aldrich, USA) was administered in the abdominal cavity of the ADHD animal model implanted with cobalt wire 7˜9 days earlier, followed by observation of the changes in brain wave for one hour. The mice were placed in the test room having square bottom where they could move freely and brain waves were being recorded from 30 minutes before the ethosuximide administration. The number of spikes was measured before and after the treatment of ethosuximide.
60 mg/kg of zonisamide (Sigma-Aldrich, USA) and 100 mg/kg of phyenytoin (Sigma-Aldrich, USA) were administered respectively in the abdominal cavity of the ADHD animal model implanted with cobalt wire 7˜9 days earlier, followed by observation of the changes in brain wave for one hour. The mice were placed in the test room having square bottom where they could move freely and brain waves were being recorded from 30 minutes before the ethosuximide administration. […]

Question: With CCC1(C)CC(=O)NC1=O (stereo not drawn) [ethosuximide] as the compound, how does the “number of spikes observed in the frontal lobe, after vs before treatment” value (150 mg/kg in the abdominal cavity) read?
Answer: significantly reduced

Question: O=C1NC(=O)C(c2ccccc2)(c2ccccc2)N1 [phyenytoin] was tested. Which “spikes observed in the frontal lobe, after vs before treatment” value (100 mg/kg in the abdominal cavity) did it give?
Answer: significantly reduced

Question: How did the “spikes observed in the frontal lobe, after vs before treatment” value (60 mg/kg in the abdominal cavity) turn out when NS(=O)(=O)Cc1noc2ccccc12 [zonisamide] was run?
Answer: significantly reduced
